# Source: PubChem BioAssay (NCI)
#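 The compound was tested at five concentrations on cells cultured in 96-well plates, with a 48-hour exposure period. The concentration for 50% growth inhibition is given as GI50. TGI denotes the concentration required for complete inhibition of growth.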
# Columns and labels:
# Test in all cases: growth of human tumour cells (NCI), 48 h
# A498 renal = tested on: A498 renal
# A549 NSCLC = tested on: A549 NSCLC
# ACHN renal = tested on: ACHN renal
# BT-549 breast = tested on: BT-549 breast
# CAKI-1 renal = tested on: CAKI-1 renal
# COLO 205 colon = tested on: COLO 205 colon
# DU-145 prostate = tested on: DU-145 prostate
# EKVX NSCLC = tested on: EKVX NSCLC
# HCC-2998 colon = tested on: HCC-2998 colon
# HCT-15 colon = tested on: HCT-15 colon
# HL-60(TB) leukemia = tested on: HL-60(TB) leukemia
# HOP-62 NSCLC = tested on: HOP-62 NSCLC
# HOP-92 NSCLC = tested on: HOP-92 NSCLC
# HS 578T breast = tested on: HS 578T breast
# HT29 colon = tested on: HT29 colon
# IGROV1 ovarian = tested on: IGROV1 ovarian
# K-562 leukemia = tested on: K-562 leukemia
# KM12 colon = tested on: KM12 colon
# LOX IMVI melanoma = tested on: LOX IMVI melanoma
# M14 melanoma = tested on: M14 melanoma
# MALME-3M melanoma = tested on: MALME-3M melanoma
# MCF7 breast = tested on: MCF7 breast
# MDA-MB-231 breast = tested on: MDA-MB-231 breast
# MDA-MB-435 = tested on: MDA-MB-435
# MDA-MB-468 breast = tested on: MDA-MB-468 breast
# MOLT-4 leukemia = tested on: MOLT-4 leukemia
# NCI-H226 lung = tested on: NCI-H226 lung
# NCI-H23 lung = tested on: NCI-H23 lung
# NCI-H460 lung = tested on: NCI-H460 lung
# NCI-H522 lung = tested on: NCI-H522 lung
# NCI/ADR-RES ovarian = tested on: NCI/ADR-RES ovarian
# OVCAR-3 ovarian = tested on: OVCAR-3 ovarian
# OVCAR-4 ovarian = tested on: OVCAR-4 ovarian
# OVCAR-5 ovarian = tested on: OVCAR-5 ovarian
# OVCAR-8 ovarian = tested on: OVCAR-8 ovarian
# PC-3 prostate = tested on: PC-3 prostate
# RPMI-8226 leukemia = tested on: RPMI-8226 leukemia
# RXF 393 renal = tested on: RXF 393 renal
# SF-268 CNS = tested on: SF-268 CNS
# SF-295 CNS = tested on: SF-295 CNS
# SF-539 CNS = tested on: SF-539 CNS
# SK-MEL-2 melanoma = tested on: SK-MEL-2 melanoma
# SK-MEL-28 melanoma = tested on: SK-MEL-28 melanoma
# SK-MEL-5 melanoma = tested on: SK-MEL-5 melanoma
# SK-OV-3 ovarian = tested on: SK-OV-3 ovarian
# SN12C renal = tested on: SN12C renal
# SNB-19 CNS = tested on: SNB-19 CNS
# SNB-75 CNS = tested on: SNB-75 CNS
# SR leukemia = tested on: SR leukemia
# SW-620 colon = tested on: SW-620 colon
# T-47D breast = tested on: T-47D breast
# TK-10 renal = tested on: TK-10 renal
# U251 CNS = tested on: U251 CNS
# UACC-257 melanoma = tested on: UACC-257 melanoma
# UACC-62 melanoma = tested on: UACC-62 melanoma
# UO-31 renal = tested on: UO-31 renal
compound,measurement,setting,value
CC(=O)Nc1ccc(-c2cn(-c3cccc(C(=O)Nc4ccc(Cl)c(C(F)(F)F)c4)c3)nn2)cn1,GI50,A498 renal,2.9 µM
same,TGI,A498 renal,5.46 µM
same,GI50,A549 NSCLC,1.86 µM
same,TGI,A549 NSCLC,3.86 µM
same,GI50,ACHN renal,1.93 µM
same,TGI,ACHN renal,4.04 µM
same,GI50,BT-549 breast,1.69 µM
same,TGI,BT-549 breast,3.5 µM
same,GI50,CAKI-1 renal,1.78 µM
same,TGI,CAKI-1 renal,3.54 µM
same,GI50,COLO 205 colon,1.47 µM
same,TGI,COLO 205 colon,3.45 µM
same,GI50,DU-145 prostate,2.83 µM
same,TGI,DU-145 prostate,8.43 µM
same,GI50,EKVX NSCLC,1.89 µM
same,TGI,EKVX NSCLC,3.92 µM
same,GI50,HCC-2998 colon,1.87 µM
same,TGI,HCC-2998 colon,4.02 µM
same,GI50,HCT-15 colon,2.02 µM
same,TGI,HCT-15 colon,4.28 µM
same,GI50,HL-60(TB) leukemia,0.824 µM
same,TGI,HL-60(TB) leukemia,> 100 µM
same,GI50,HOP-62 NSCLC,1.67 µM
same,TGI,HOP-62 NSCLC,3.49 µM
same,GI50,HOP-92 NSCLC,1.58 µM
same,TGI,HOP-92 NSCLC,3.6 µM
same,GI50,HS 578T breast,2.03 µM
same,TGI,HS 578T breast,7.01 µM
same,GI50,HT29 colon,1.43 µM
same,TGI,HT29 colon,3.09 µM
same,GI50,IGROV1 ovarian,1.7 µM
same,TGI,IGROV1 ovarian,3.36 µM
same,GI50,K-562 leukemia,1.32 µM
same,TGI,K-562 leukemia,5.89 µM
same,GI50,KM12 colon,1.81 µM
same,TGI,KM12 colon,6.37 µM
same,GI50,LOX IMVI melanoma,1.39 µM
same,TGI,LOX IMVI melanoma,2.72 µM
same,GI50,M14 melanoma,1.12 µM
same,TGI,M14 melanoma,3.46 µM
same,GI50,MALME-3M melanoma,0.559 µM
same,TGI,MALME-3M melanoma,1.95 µM
same,GI50,MCF7 breast,1.82 µM
same,TGI,MCF7 breast,4.12 µM
same,GI50,MDA-MB-231 breast,1.09 µM
same,TGI,MDA-MB-231 breast,2.39 µM
same,GI50,MDA-MB-435,1.39 µM
same,TGI,MDA-MB-435,3.05 µM
same,GI50,MDA-MB-468 breast,1.45 µM
same,TGI,MDA-MB-468 breast,3.02 µM
same,GI50,MOLT-4 leukemia,2.62 µM
same,TGI,MOLT-4 leukemia,7.99 µM
same,GI50,NCI-H226 lung,1.87 µM
same,TGI,NCI-H226 lung,3.78 µM
same,GI50,NCI-H23 lung,1.52 µM
same,TGI,NCI-H23 lung,2.98 µM
same,GI50,NCI-H460 lung,1.5 µM
same,TGI,NCI-H460 lung,3.05 µM
same,GI50,NCI-H522 lung,1.71 µM
same,TGI,NCI-H522 lung,3.6 µM
same,GI50,NCI/ADR-RES ovarian,3.5 µM
same,TGI,NCI/ADR-RES ovarian,17.8 µM
same,GI50,OVCAR-3 ovarian,1.92 µM
same,TGI,OVCAR-3 ovarian,3.62 µM
same,GI50,OVCAR-4 ovarian,2.53 µM
same,TGI,OVCAR-4 ovarian,7.39 µM
same,GI50,OVCAR-5 ovarian,1.93 µM
same,TGI,OVCAR-5 ovarian,4.86 µM
same,GI50,OVCAR-8 ovarian,2.02 µM
same,TGI,OVCAR-8 ovarian,4.66 µM
same,GI50,PC-3 prostate,1.83 µM
same,TGI,PC-3 prostate,5.21 µM
same,GI50,RPMI-8226 leukemia,2.5 µM
same,TGI,RPMI-8226 leukemia,34.7 µM
same,GI50,RXF 393 renal,1.69 µM
same,TGI,RXF 393 renal,3.5 µM
same,GI50,SF-268 CNS,2.3 µM
same,TGI,SF-268 CNS,5.73 µM
same,GI50,SF-295 CNS,1.51 µM
same,TGI,SF-295 CNS,2.91 µM
same,GI50,SF-539 CNS,1.44 µM
same,TGI,SF-539 CNS,2.82 µM
same,GI50,SK-MEL-2 melanoma,1.65 µM
same,TGI,SK-MEL-2 melanoma,3.78 µM
same,GI50,SK-MEL-28 melanoma,1.35 µM
same,TGI,SK-MEL-28 melanoma,2.82 µM
same,GI50,SK-MEL-5 melanoma,1.9 µM
same,TGI,SK-MEL-5 melanoma,4.3 µM
same,GI50,SK-OV-3 ovarian,2.01 µM
same,TGI,SK-OV-3 ovarian,5.17 µM
same,GI50,SN12C renal,1.77 µM
same,TGI,SN12C renal,3.49 µM
same,GI50,SNB-19 CNS,2.24 µM
same,TGI,SNB-19 CNS,4.7 µM
same,GI50,SNB-75 CNS,1.61 µM
same,TGI,SNB-75 CNS,4.47 µM
same,GI50,SR leukemia,1.86 µM
same,TGI,SR leukemia,> 100 µM
same,GI50,SW-620 colon,1.57 µM
same,TGI,SW-620 colon,3.29 µM
same,GI50,T-47D breast,2.47 µM
same,TGI,T-47D breast,7.93 µM
same,GI50,TK-10 renal,2.3 µM
same,TGI,TK-10 renal,4.68 µM
same,GI50,U251 CNS,1.85 µM
same,TGI,U251 CNS,3.59 µM
same,GI50,UACC-257 melanoma,1.56 µM
same,TGI,UACC-257 melanoma,3.5 µM
same,GI50,UACC-62 melanoma,1.29 µM
same,TGI,UACC-62 melanoma,2.79 µM
same,GI50,UO-31 renal,1.64 µM
same,TGI,UO-31 renal,3.54 µM
